Data taken from ChEMBL document CHEMBL6153174, “Design and Synthesis of Novel Deazapurine DNMT 1 Inhibitors with In Vivo Efficacy in DLBCL” (J Med Chem, 2025).
Calls of active or inactive are those of the source. The rule behind the calls is not given here.

Assays:
[1] = molecular target: T1, Histone-lysine N-methyltransferase EHMT2 (Homo sapiens) (UniProt Q96KQ7); experiment: Inhibition of G9a (unknown origin) at 5 uM preincubated for 15 mins followed by substrate and [3H-SAM] addition and measured after 60 mins by microbeta analysis relative to control; conditions: time 75.0 min
T1 sequence (whole entry): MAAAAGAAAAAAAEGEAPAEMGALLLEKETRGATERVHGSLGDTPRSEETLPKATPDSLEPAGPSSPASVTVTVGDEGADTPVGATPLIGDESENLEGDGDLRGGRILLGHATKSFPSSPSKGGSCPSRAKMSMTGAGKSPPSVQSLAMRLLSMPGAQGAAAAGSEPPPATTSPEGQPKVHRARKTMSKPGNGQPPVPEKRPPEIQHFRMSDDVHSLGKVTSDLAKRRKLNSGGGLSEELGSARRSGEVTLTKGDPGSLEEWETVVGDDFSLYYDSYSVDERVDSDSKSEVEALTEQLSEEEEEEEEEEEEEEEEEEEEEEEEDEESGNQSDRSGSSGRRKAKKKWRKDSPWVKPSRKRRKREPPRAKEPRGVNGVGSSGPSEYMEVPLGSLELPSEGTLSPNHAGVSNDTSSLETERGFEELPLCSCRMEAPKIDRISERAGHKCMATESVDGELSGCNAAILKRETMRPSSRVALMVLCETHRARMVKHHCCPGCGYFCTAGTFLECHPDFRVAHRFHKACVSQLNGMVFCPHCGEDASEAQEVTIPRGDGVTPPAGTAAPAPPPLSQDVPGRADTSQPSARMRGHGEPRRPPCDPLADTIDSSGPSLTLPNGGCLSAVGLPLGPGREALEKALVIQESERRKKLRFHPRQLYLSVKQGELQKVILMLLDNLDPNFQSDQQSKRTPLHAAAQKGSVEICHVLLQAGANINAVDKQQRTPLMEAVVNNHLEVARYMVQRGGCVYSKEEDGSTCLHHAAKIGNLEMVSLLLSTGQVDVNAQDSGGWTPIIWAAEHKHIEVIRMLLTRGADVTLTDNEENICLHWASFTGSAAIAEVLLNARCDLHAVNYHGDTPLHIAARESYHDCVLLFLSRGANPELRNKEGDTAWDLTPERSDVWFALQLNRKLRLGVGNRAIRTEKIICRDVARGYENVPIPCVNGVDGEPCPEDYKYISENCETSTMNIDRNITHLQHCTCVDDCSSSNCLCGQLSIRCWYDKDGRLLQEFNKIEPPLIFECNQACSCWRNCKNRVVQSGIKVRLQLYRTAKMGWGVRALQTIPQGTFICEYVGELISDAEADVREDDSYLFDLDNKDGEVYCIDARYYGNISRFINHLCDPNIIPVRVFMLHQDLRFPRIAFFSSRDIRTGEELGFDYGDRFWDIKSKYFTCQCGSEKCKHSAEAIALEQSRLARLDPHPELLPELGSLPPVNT

[2] = molecular target: T2, Histone-lysine N-methyltransferase EHMT2 (Homo sapiens, UniProt Q96KQ7); experiment: Inhibition of G9a (unknown origin) preincubated for 15 mins followed by substrate and [3H-SAM] addition and measured after 60 mins by microbeta analysis
T2 sequence (Q96KQ7 whole entry): T1 sequence (whole entry)

[3] = Cmax in Sprague-Dawley rat at 10 mg/kg, po measured upto 24 hrs by LC/MS/MS analysis; assay type: ADME, organism-based; conditions: in vivo
[4] = Apparent clearance during terminal phase in Sprague-Dawley rat at 10 mg/kg, po measured upto 24 hrs by LC/MS/MS analysis; assay type: ADME, organism-based; conditions: in vivo, read-out: CLz/F (converted)
[5] = Volume of distribution at steady state in Sprague-Dawley rat at 10 mg/kg, iv measured upto 24 hrs by LC/MS/MS analysis; assay type: ADME, organism-based; conditions: in vivo, read-out: Vdss
[6] = system: RPMI-8226; experiment: Antiproliferative activity against human RPMI-8226 cells assessed as inhibition of cell viability measured after 72 hrs by MTT assay; assay type: functional, cell-based; conditions: RPMI-8226, 72 h
[7] = system: TMD8; experiment: Induction of cell cycle arrest in human TMD8 cells assessed as accumulation of cells at G0-G1 phase at 0.5 uM incubated for 24 hrs by PI staining based flow cytometry analysis (reference value: 40.7%); assay type: functional
[8] = system: TMD8; experiment: Induction of cell cycle arrest in human TMD8 cells assessed as accumulation of cells at S phase at 1.0 uM incubated for 24 hrs by PI staining based flow cytometry analysis (reference value: 39.0%); assay type: functional
[9] = system: DOHH-2; experiment: Induction of cell cycle arrest in human DOHH-2 cells assessed as accumulation of cells at G0-G1 phase at 0.5 uM incubated for 24 hrs by PI staining based flow cytometry analysis (reference value: 27.1%); assay type: functional
[10] = system: TMD8; experiment: Induction of cell cycle arrest in human TMD8 cells assessed as accumulation of cells at G2/M phase incubated for 24 hrs by PI staining based flow cytometry analysis; assay type: functional; conditions: dose 0.25-1 µM
[11] = system: DOHH-2; experiment: Induction of cell cycle arrest in human DOHH-2 cells assessed as accumulation of cells at G2/M phase incubated for 24 hrs by PI staining based flow cytometry analysis; assay type: functional; conditions: dose 0.25-1 µM
[12] = system: DOHH-2; experiment: Induction of cell cycle arrest in human DOHH-2 cells assessed as accumulation of cells at G0-G1 phase incubated for 24 hrs by PI staining based flow cytometry analysis; assay type: functional; conditions: dose 0.25-1 µM
[13] = system: DOHH-2; experiment: Induction of apoptosis in human DOHH-2 cells assessed as late apoptotic cells measured after 48 hrs by annexin-V/FITC and PI staining based flow cytometry analysis; assay type: functional, cell-based; conditions: dose 0.25-5 µM
[14] = system: TMD8; experiment: Induction of apoptosis in human TMD8 cells assessed as early apoptotic cells at 5 uM measured after 48 hrs by annexin-V/FITC and PI staining based flow cytometry analysis (reference value: 9.15%); assay type: functional
[15] = system: TMD8; experiment: Induction of apoptosis in human TMD8 cells assessed as early apoptotic cells at 10 uM measured after 48 hrs by annexin-V/FITC and PI staining based flow cytometry analysis (reference value: 9.15%); assay type: functional
[16] = system: DOHH-2; experiment: Induction of apoptosis in human DOHH-2 cells assessed as early apoptotic cells at 1 uM measured after 48 hrs by annexin-V/FITC and PI staining based flow cytometry analysis (reference value: 5.69%); assay type: functional
[17] = system: DOHH-2; experiment: Induction of apoptosis in human DOHH-2 cells assessed as late apoptotic cells at 5 uM measured after 48 hrs by annexin-V/FITC and PI staining based flow cytometry analysis (reference value: 3.66%); assay type: functional
[18] = molecular target: DNA (cytosine-5)-methyltransferase 1 (Homo sapiens, UniProt P26358); experiment: Inhibition of DNMT1 in human DOHH-2 cells assessed as inhibition of DNA methylation incubated for 48 hrs by Western blot analysis; assay type: cell-based; conditions: dose 10-1000 nM
[19] = Downregulation of BAX methylation level in human DOHH-2 cells at 100 nM measured after 6 days by PCR analysis relative to control; assay type: functional; conditions: time 6 day
[20] = Subacute toxicity in Balb/C mouse assessed as effect on red blood cells at 30 mg/kg, iv administered three times in a week for 2 weeks; assay type: organism-based; conditions: in vivo, 336 h
[21] = Antitumor activity against human TMD8 cells harbouring TP53 mutant xenografted in mouse model assessed as body weight change at 10 mg/kg, iv administered three times a week in presence of chidamide relative to control; assay type: functional

DNA (cytosine-5)-methyltransferase 1, sequence (P26358 whole entry): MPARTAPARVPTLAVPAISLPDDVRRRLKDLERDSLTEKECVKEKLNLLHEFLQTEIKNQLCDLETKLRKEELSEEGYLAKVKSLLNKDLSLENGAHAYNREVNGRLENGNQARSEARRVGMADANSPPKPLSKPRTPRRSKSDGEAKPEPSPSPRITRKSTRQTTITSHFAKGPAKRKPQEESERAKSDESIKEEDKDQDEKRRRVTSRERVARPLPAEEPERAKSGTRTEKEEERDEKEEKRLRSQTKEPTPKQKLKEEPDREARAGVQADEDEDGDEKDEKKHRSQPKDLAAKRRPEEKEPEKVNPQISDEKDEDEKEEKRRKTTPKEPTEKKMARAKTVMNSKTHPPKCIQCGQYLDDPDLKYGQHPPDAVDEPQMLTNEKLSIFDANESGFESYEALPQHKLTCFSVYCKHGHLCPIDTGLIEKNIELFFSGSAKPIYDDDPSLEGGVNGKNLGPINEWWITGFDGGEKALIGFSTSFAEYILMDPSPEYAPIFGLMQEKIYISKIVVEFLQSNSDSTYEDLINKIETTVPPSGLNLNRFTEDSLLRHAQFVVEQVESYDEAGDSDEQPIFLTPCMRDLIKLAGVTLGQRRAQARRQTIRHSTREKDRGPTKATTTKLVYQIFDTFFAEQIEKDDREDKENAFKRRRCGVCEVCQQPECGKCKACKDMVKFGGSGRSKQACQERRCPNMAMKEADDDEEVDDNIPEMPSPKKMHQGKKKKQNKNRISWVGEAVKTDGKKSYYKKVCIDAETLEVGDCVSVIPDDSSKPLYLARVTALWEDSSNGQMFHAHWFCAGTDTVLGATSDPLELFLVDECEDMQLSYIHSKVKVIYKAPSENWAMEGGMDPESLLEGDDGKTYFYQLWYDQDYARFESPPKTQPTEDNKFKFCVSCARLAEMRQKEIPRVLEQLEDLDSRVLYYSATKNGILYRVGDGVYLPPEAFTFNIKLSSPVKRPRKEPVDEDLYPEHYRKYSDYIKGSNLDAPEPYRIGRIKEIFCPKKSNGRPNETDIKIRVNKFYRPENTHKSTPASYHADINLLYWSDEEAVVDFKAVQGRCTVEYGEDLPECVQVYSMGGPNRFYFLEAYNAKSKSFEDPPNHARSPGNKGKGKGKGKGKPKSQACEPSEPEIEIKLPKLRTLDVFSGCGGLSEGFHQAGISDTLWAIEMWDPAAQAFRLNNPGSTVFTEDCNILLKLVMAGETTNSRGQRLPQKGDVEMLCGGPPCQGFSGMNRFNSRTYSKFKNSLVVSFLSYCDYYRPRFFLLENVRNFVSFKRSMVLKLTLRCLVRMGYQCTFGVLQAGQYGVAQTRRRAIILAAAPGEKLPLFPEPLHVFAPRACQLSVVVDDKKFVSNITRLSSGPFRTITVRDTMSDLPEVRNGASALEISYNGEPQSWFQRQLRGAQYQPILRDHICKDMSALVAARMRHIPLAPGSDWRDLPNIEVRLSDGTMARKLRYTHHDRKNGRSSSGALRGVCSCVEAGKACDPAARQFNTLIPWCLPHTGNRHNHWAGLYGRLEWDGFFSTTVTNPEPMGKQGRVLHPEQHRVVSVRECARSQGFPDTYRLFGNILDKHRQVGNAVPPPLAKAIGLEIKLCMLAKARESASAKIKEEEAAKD

CN1CCC(Nc2nc(-c3ccnc(F)c3)nc3c2ccn3CCCN2CCCC2)CC1
inhibition [1]: 0.3% | IC50 [2]: > 20 µM | Cmax [3]: 16.7 ng/mL | CL/F [4]: 322 mL/min/kg | Vd [5]: 102 L/kg | IC50 [6]: 780 nM | Activity [7]: 39% | Activity [8]: 29.3% | Activity [9]: 39.7% | Activity [10]: Dose-dependent-effect | Activity [11]: Dose-dependent-effect | Activity [12]: Dose-dependent-effect | Activity [13]: Dose-dependent-effect | Activity [14]: 41.3% | Activity [15]: 47.5% | Activity [16]: 24% | Activity [17]: 34.7% | inhibition [18]: Active | Activity [19]: 55.2% | Activity [20]: Non-toxic | Activity [21]: -1.5%
